# Measured values as given in BindingDB's records for patent US20230303513 (Bristol-Myers Squibb, 2023).
# Experiments:
# [1] = target: T1, N-formyl peptide receptor 2 (Homo sapiens, UniProt P25090); assay: cAMP Assay
# T1 sequence (P25090 whole entry): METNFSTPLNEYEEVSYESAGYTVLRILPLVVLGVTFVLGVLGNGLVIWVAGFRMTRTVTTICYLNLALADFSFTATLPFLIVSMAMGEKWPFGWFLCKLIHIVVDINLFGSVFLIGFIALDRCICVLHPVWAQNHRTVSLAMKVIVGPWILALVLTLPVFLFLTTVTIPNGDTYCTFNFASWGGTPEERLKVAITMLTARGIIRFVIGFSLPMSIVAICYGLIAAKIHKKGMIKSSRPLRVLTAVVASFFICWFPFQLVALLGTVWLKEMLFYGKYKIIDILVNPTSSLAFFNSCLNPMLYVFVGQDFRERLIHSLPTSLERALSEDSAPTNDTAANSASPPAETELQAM
# Protocol: (§1) FPR2 and FPR1 Cyclic Adenosine Monophosphate (cAMP) Assays were used to measure the activity of the compounds in this patent. FPR2 and FPR1 Cyclic Adenosine Monophosphate (cAMP) Assays. A mixture of forskolin (5 μM final for FPR2 or 10 μM final for FPR1) and IBMX (200 μM final) were added to 384-well Proxiplates (Perkin-Elmer) pre-dotted with test compounds in DMSO (1% final) at final concentrations in the range of 0.020 nM to 100 μM. Chinese Hamster Ovary cells (CHO) overexpressing human FPR1 or human FPR2 receptors were cultured in F-12 (Ham's) medium supplemented with 10% qualified FBS, 250 μg/ml zeocin and 300 μg/ml hygromycin (Life Technologies). Reactions were initiated by adding 2,000 human FPR2 cells per well or 4,000 human FPR1 cells per well in Dulbecco's PBS (with calcium and magnesium) (Life Technologies) supplemented with 0.1% BSA (Perkin-Elmer). The reaction mixtures were incubated for 30 min at room temperature. The level of intracellular cAMP was determined using the HTRF HiRange cAMP assay reagent kit (Cisbio) according to manufacturer's instruction. Solutions of cryptate conjugated anti-cAMP and d2 flurorophore-labelled cAMP were made in a supplied lysis buffer separately. Upon completion of the reaction, the cells were lysed with equal volume of the d2-cAMP solution and anti-cAMP solution.
# fMet-Leu-Phe receptor = target: T2, fMet-Leu-Phe receptor (Homo sapiens, UniProt P21462); assay: cAMP Assay
# T2 sequence (P21462 whole entry): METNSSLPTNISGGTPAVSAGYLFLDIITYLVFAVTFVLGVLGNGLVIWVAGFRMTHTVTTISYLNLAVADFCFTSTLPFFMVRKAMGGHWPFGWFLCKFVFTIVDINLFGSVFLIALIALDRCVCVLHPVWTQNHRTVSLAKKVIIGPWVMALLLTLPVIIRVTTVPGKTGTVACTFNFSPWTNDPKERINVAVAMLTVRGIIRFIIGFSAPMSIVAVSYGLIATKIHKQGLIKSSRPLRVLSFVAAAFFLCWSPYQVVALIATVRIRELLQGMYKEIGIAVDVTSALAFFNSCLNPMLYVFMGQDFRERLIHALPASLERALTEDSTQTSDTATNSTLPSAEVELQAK
# Protocol: as §1
EC50 [1],EC50 (fMet-Leu-Phe receptor),SMILES
6.2 nM,> 10000 nM,"COCCn1cccc(N2C[C@@H](c3ccc(Cl)cc3)[C@H](NC(=O)NC3CCc4cc(OC)ccc4C3)C2=O)c1=O (some centres undefined) [US20230303513, Example 55]"
41 nM,3600 nM,"COCC(CO)n1cccc(N2C(=O)[C@@H](NC(=O)N[C@H]3CC[C@H](C(F)F)CC3)[C@H](c3c(F)cc(OC)cc3F)[C@@H]2C)c1=O (some centres undefined) [US20230303513, Example 63]"
